Data as given in patent US20260275295A1, “LIVER ORGANOIDS WITH INTRAHEPATIC SYMPATHETIC NERVES AND METHODS OF USE THEREOF” (CHILDREN'S HOSPITAL MEDICAL CENTER, priority 2023, published 2026).

What was measured:
[1] = system: adrenergic receptor signaling; assay: intracellular cAMP levels in human liver organoids; format: cell-based; conditions: compared to untreated organoids
Description: The sympathetic neurons, or sympathetic nerves, in human liver organoids were ablated by 6-hydroxydopamine (6-OHDA), a sympathetic-specific toxin, and the intracellular levels of cyclic AMP (CAMP), a second messenger of adrenergic receptors in human liver organoids, were measured.

human liver organoids = assay: RT-qPCR of gluconeogenesis, lipogenesis and cytokine genes in liver organoids; format: cell-based
[2] = system: hepatocytes of human liver organoids; assay: TG accumulation in hepatocytes of organoids, live cell imaging with BODIPY 493/503; format: cell-based
Description: Next, it was determined whether sympathetic neurons, or sympathetic nerves, in human liver organoids contribute to lipid accumulation in hepatocytes. After treatment with 6-OHDA, triglyceride (TG) in hepatocytes of the organoids were measured by live cell imaging using BODIPY 493/503, a fluorescent probe for TG, and the accumulation of TG in hepatocytes of 6-OHDA-treated and untreated organoids was compared. TG accumulation in hepatocytes of 6-OHDA-treated organoids was about twice that of untreated organoids (FIG. 8A). In addition, TG accumulation in hepatocytes of organoids treated with 6-OHDA and then exposed to oleic acid (OA) for 3 days was about 3-fold higher than that of OA-only treated organoids (FIG. 8A).

[3] = system: human liver organoids (HLOs); assay: immunostaining and cell volume analysis of TUBB3+ and TH+ nerves in HLOs; format: cell-based
Description: Single cell RNA sequencing (scRNAseq) and real-time PCR quantification of gene expression were performed in day 20 (D20) liver organoids, and it was noted that the neuron attractive factor BDNF was highly expressed in hepatic stellate-like cells of the liver organoids. (FIG. 13). HLOs were treated with and without 1 μM BDNF inhibitor ANA12 for 5 days from day 15 (D15) to day 20 (D20) of differentiation induction. […] (FIG. 14). […] HLOs were treated with and without 100 nM of BDNF for 13 days from day 15 (D15) to day 28 (D28) of differentiation induction.

[4] = system: human liver organoids (HLOs); assay: generation of neural crest cells and sympathetic neurons in HLOs (real-time PCR, whole mount immunostaining, flow cytometry); format: cell-based
foregut spheroids = assay: real-time PCR of neural crest markers in foregut spheroids; format: cell-based, human; conditions: 250 nM, 500 nM, or 1000 nM for 72 hours D3 to D6, PCR on D6
Description: (§1) Foregut spheroids were treated with 250 nM, 500 nM, or 1000 nM of the BMP inhibitor LDN193189 for 72 hours from day 3 (D3) to day 6 (D6) of differentiation, and real-time PCR quantification was performed on D6. […] (FIG. 12). […] (FIG. 15A).

[5] = system: human liver organoids (HLOs); assay: generation of neural crest cells and sympathetic neurons in HLOs (real-time PCR, whole mount immunostaining, flow cytometry); format: cell-based; remark: listed apart in the source
Description: as §1

[6] = system: human liver organoids (HLOs); assay: gene expression of liver markers / liver induction in HLOs; format: cell-based
[7] = system: human liver organoids (HLOs); assay: albumin (ALB) secretion of HLOs; format: cell-based
[8] = system: HLO derived from two different iPS lines; assay: amount of TH+ cells in OA-treated HLO (NASH model); format: cell-based, human; conditions: OA treatment
From the text: FIG. 25 depicts the effect of OA treatment in increasing the amount of TH+ cells in HLO derived from two different iPS lines, showing an increase in innervation in a NASH model.
• 1. The distribution of sympathetic nerves projected to the liver is very different in humans as compared to experimental model animals, such as mice and rats. The presently described sympathetic neuron-containing human liver organoid model is expected to elucidate the distinctive mechanisms and timing of intrahepatic sympathetic projections during human liver development. • 2. Although it has been reported that sympathetic nerves contribute to the development and function of multiple organs, little is known regarding sympathetic nerves in the liver. This model leads to the identification of sympathetic effects on human liver development and the elucidation of their mechanisms of action. The model can also enable construction of enhanced (or mature) liver organoids by artificially regulating sympathetic nerve activity. • 3. The sympathetic nervous system has been reported to regulate gluconeogenesis in humans, but the mechanism by which it is promoted is unknown. Using this model, the mechanisms of human hepatic sympathetic innervation in gluconeogenesis can be elucidated. • 4. […] This model will allow us to identify the role of sympathetic nerves and their mechanisms in liver diseases. […]

[9] = RT-qPCR, 6-OHDA treated organoids vs control
[10] = steatosis conditions (oleic acid), relative to those not treated with 6-OHDA
[11] = SB alone, 10 μM, days 3-6, listed as SB

Molecule: NCCc1cc(O)c(O)cc1O [6-OHDA, 6-hydroxydopamine]
- concentration of cAMP [1]: significantly decreased
- expression of CD36 (human liver organoids; [9]): increased expression
- expression of G6PC (human liver organoids; [9]): increased expression
- expression of PCK1 (human liver organoids; [9]): increased expression
- expression of SCD (human liver organoids; [9]): increased expression
- expression of CXCL8 (IL8) (human liver organoids; [10]): increased expression
- expression of TNF (human liver organoids; [10]): increased expression
- TG accumulation in hepatocytes ([2]; 6-OHDA then oleic acid (OA) for 3 days, vs OA-only treated organoids): about 3 fold
- TG accumulation in hepatocytes ([2]; 6-OHDA-treated vs untreated organoids): about twice

Molecule: O=C(Nc1ccccc1C(=O)NC1CCCCNC1=O)c1cc2ccccc2s1 (centres unmarked) [ANA12]
- TH+ nerve production and elongation of nerves ([3]; 1 μM for 5 days, D15 to D20): suppressed TH+ nerve production and elongation of nerves

Molecule: Cc1c[nH]c(-c2cnc(NCCNc3ccc(C#N)cn3)nc2-c2ccc(Cl)cc2Cl)n1 [CHIR]
- TUBB3+ neurons and SOX10 neural crest cells compared to LDN alone ([4]; 3 μM CHIR instead of 2 μM, with 250 nM LDN, days 3-6): more and More

Molecule: c1ccc2c(-c3cnn4cc(-c5ccc(N6CCNCC6)cc5)cnc34)ccnc2c1 [LDN193189]
- detection of neurons ([4]; 250 nM LDN193189 alone or in combination with 10 μM SB431542, days 6-10, rate varies between batches): sometimes detected
- expression of autonomic marker ASCL1 ([4]; HLOs on day 20, treated days 3-6, real-time PCR): increased
- frequency of sympathetic generation ([4]; addition Day 6-10): varies between batches
- expression of neural crest marker FOXD3 (foregut spheroids): increased expression
- expression of neural crest marker NGFR (foregut spheroids): increased expression
- expression of neural crest marker SOX10 (foregut spheroids): increased expression
- neural crest cells and TUBB3/TH+ neurons detected ([5]; 250 nM, days 3-6): high frequency
- induction of neural crest cells and TH/TUBB+ sympathetic neurons ([5]; 250 nM, days 3 to 6): optimal concentrations
- induction of neural crest cells and TH/TUBB+ sympathetic neurons ([5]; 500 nM, days 3 to 6): optimal concentrations
- TH/TUBB+ sympathetic neurons ([5]; 1000 nM, days 3 to 6): reduced
- production of neural crest cells ([5]; 1000 nM, days 3 to 6): reduced
- creation of sympathetic neurons, or sympathetic nerves ([5]; LDN 250 (nM)): reproducibly
- gene expression level of liver marker HNF4A ([6]; 250 nM, 500 nM, 1000 nM): decrease in a LDN concentration-dependent manner
- gene expression level of liver marker albumin (ALB) ([6]; 250 nM, 500 nM, 1000 nM): decrease in a LDN concentration-dependent manner
- gene expression of liver marker ALB ([6]; 250 nM, days 3-6): reduced
- gene expression of liver marker HNF4A ([6]; 250 nM, days 3-6): reduced
- induction to the liver ([6]; timing of addition changed from Day 3-6 to Day 6-10): improves induction to the liver
- ALB secretion lower ([7]; 250 nM LDN193189 alone or in combination with 10 μM SB431542, days 6-10): about ⅓
- ALB secretion ([7]; 250 nM, days 3-6): reduced
- albumin secretion compared to existing HLOs ([7]; 250 nM, days 3-6): 30-40 fold lower
- reduction of albumin secretion compared to conventional HLOs ([7]; addition Day 6-10): a third

Molecule: CCCCCCCC/C=C\CCCCCCCC(=O)O [OA, oleic acid]
- amount of TH+ cells in HLO [8]: increasing

Molecule: NC(=O)c1ccc(-c2nc(-c3ccc4c(c3)OCO4)c(-c3ccccn3)[nH]2)cc1 [SB431542]
- neural crest cells and TUBB3/TH+ neurons detected ([4]; 10 μM SB431542 with 250 nM LDN193189, days 3-6): detected earlier (day 15) and more frequently than in the other conditions
- TUBB+/TH+ sympathetic innervation ([4]; SB431542 in addition to LDN, Day 3-Day 6, LDN alone had not yet developed innervation on day 15): extensive TUBB+/TH+ sympathetic innervation was formed around day 15
- TH signal ([4]; SB alone, 10 μM, days 3-6): no TH signal was observed
- TUBB3-positive cells / TUBB3+ innervation ([4]; SB alone, 10 μM, days 3-6): appeared
- expression of the parasympathetic marker CHAT ([4]; SB alone, 10 μM, days 3-6): detected in some TUBB3+ nerves
- TUBB3-positive cells / TUBB3+ innervation [4, 11]: observed
- expression of the parasympathetic marker CHAT [4, 11]: detected in some cells
- albumin secretion ([7]; SB431542 (10 μM) in addition to LDN (250 nM), days 3-6): minimal

Molecule: CC(C)NCC(O)c1ccc(O)c(O)c1 (centres unmarked) [isoproterenol]
- concentration of cAMP [1]: increased

Molecule: NC[C@H](O)c1ccc(O)c(O)c1 [noradrenaline]
- concentration of cAMP [1]: increased

B1: BDNF: brain derived neurotrophic factor, neuron attractive factor (protein, UniProt P23560 19-247, looked up)
Neurotrophic factor BDNF …: APMKEANIRGQGGLAYPGVRTHGTLESVNGPKAGSRGLTSLADTFEHVIEELLDEDQKVRPNEENNKDADLYTSRVMLSSQVPLEPPLLFLLEEYKNYLDAANMSMRVRRHSDPARRGELSVCDSISEWVTAADKKTAVDMSGGTVTVLEKVPVSKGQLKQYFYETKCNPMGYTKEGCRGIDKRHWNSQCRTTQSYVRALTMDSKKRIGWRFIRIDTSCVCTLTIKRGR
- nerves (TUBB3 immunostaining) ([3]; 100 nM for 13 days, D15 to D28): nerves tend to increase and elongate
